How the values were obtained:
GTL16 = GTL16 cell assay (EC50); assay type: cell-based; settings: Homo sapiens, GTL 16
GTL16 tumors = experiment: GTL16 tumor xenograft model, tumor growth inhibition; assay type: in vivo, female athymic nude mice; settings: for decrease of mean tumor volume compared to vehicle-treated group: last day of treatment
Experimental: GTL16 Tumor Xenograft Model
Female athymic nude mice (nu/nu from Harlan) were 6-8 weeks old with a body weight range of 18-22 g at the beginning of the study. The animals had free access to food and water throughout the study. The mice were housed on irradiated Alpha-dri® Bed-O-Cobs® Laboratory Animal Bedding in static micro isolator caging on a 12-hour light cycle at 70-74° F. and 40-60% humidity. All procedures involving animals were conducted in compliance with the NIH Guide for the Care and Use of Laboratory Animals and all protocols were approved by an Internal Animal Care and Use Committee (IACUC).
Xenografts were initiated from GTL-16 tumor cells cultured and maintained by an internal Cell Biology Department. Each test mouse received a subcutaneous injection of 4×10^6 cells suspended in 100 μL of serum free RPMI media. Tumors were randomized into treatment groups on Day 5 when the average tumor size reached approximately 150 mm^3. Each dose groups contained n=5 mice. Tumor volume was calculated using the formula: Tumor Volume=(w^2×l)/2, where w=width and l=length in mm of the tumor. Tumor weight may be estimated with the assumption that 1 mg is equivalent to 1 mm^3 of tumor volume.
Tumor Growth Inhibition (TGI) Analysis
TGI was calculated from the difference between the mean tumor volumes of vehicle-treated and drug-treated mice, expressed as a percentage.
The MTV is defined as the mean tumor volume (MTV) for the number of animals, n, remaining in the study on that day.

[1] = molecular target: MET kinase (c-MET), kinase domain of human Met (Homo sapiens, UniProt P08581); experiment: MET luminescence-based enzyme assay (Kinase-Glo)
Sequence of MET kinase (c-MET), kinase domain of human Met (P08581 1078-1345 limits assumed): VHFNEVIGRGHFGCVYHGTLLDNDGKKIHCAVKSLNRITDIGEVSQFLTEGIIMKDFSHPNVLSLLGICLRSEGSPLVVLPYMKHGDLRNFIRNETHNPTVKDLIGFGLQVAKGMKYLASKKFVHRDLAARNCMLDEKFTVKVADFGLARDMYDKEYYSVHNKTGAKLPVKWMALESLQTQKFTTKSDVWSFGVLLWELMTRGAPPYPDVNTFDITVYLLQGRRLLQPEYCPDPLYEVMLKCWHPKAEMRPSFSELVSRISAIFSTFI

Row | SMILES | IC50 [1] | EC50 (GTL16; Table 2) | other results
1 | CNC(=O)c1ccc(-c2ccc3nnc(Cc4ccc5ncccc5c4)n3n2)cc1F [compound 30] | < 100 nM |  | EC50 (GTL16; Table 1): < 100 nM; decrease of mean tumor volume compared to vehicle-treated group (GTL16 tumors; 3 mg/kg PO BID for 14 consecutive days, p<0.2743): 27%; decrease of mean tumor volume compared to vehicle-treated group (GTL16 tumors; 50 mg/kg IP BID for 14 consecutive days, p<0.0036): 89%; inhibition of growth of GTL16 tumors grown subcutaneously (GTL16 tumors; IP dose 50 mg/kg BID, 14 consecutive days): statistically significant inhibition
2 | CCCn1cc(-c2cnc3ccc(Cc4nnc5ccc(C)nn45)cc3c2)cn1 [compound 163] | < 100 nM | < 100 nM | 
3 | Cc1ccc2nnc(Cc3ccc4ncc(-c5cnn(C6(C(=O)O)CCC6)c5)cc4c3)n2n1 [compound 164] | < 100 nM | 1000 to 10000 nM | 
4 | Cc1ccc2nnc(Cc3ccc4ncc(-c5cnn(CCN(C)C)c5)cc4c3)n2n1 [compound 168] | < 100 nM | < 100 nM | 
5 | Cc1ccc2nnc(Cc3ccc4ncc(-c5cnn(CC6CN(C(=O)OC(C)(C)C)C6)c5)cc4c3)n2n1 [compound 169] | < 100 nM | < 100 nM | 
6 | Cc1ccc2nnc(Cc3ccc4ncc(-c5cnn(CCN6CCCC6)c5)cc4c3)n2n1 [compound 170] | < 100 nM | < 100 nM | 
7 | CCN1CC(n2cc(-c3cnc4ccc(Cc5nnc6ccc(C)nn56)cc4c3)cn2)C1 [compound 171, 3-[1-(1-Ethyl-azetidin-3-yl)-1H-pyrazol-4-yl]-6-(6-methyl-[1,2,4]triazolo[4,3-b]pyridazin-3-ylmethyl)-quinoline] | < 100 nM | < 100 nM | 
8 | Cc1ccc2nnc(Cc3ccc4ncc(-c5cnn(CC6CN(S(C)(=O)=O)C6)c5)cc4c3)n2n1 [compound 172, 3-[1-(1-Methanesulfonyl-azetidin-3-ylmethyl)-1H-pyrazol-4-yl]-6-(6-methyl-[1,2,4]triazolo[4,3-b]pyridazin-3-ylmethyl)-quinoline] | < 100 nM | 100 to 1000 nM | 
9 | CCN(CC)CCn1cc(-c2cnc3ccc(Cc4nnc5ccc(C)nn45)cc3c2)cn1 [compound 173] | < 100 nM | < 100 nM | 
10 | CC(=O)N1CC(n2cc(-c3cnc4ccc(Cc5nnc6ccc(C)nn56)cc4c3)cn2)C1 [compound 175, 1-(3-{4-[6-(6-Methyl-[1,2,4]triazolo[4,3-b]pyridazin-3-ylmethyl)-quinolin-3-yl]-pyrazol-1-yl}-azetidin-1-yl)-ethanone] | < 100 nM | 100 to 1000 nM | 
11 | CCN1CC(Cn2cc(-c3cnc4ccc(Cc5nnc6ccc(C)nn56)cc4c3)cn2)C1 [compound 180] | < 100 nM | < 100 nM | 
12 | CC(=O)N1CC(Cn2cc(-c3cnc4ccc(Cc5nnc6ccc(C)nn56)cc4c3)cn2)C1 [compound 181] | < 100 nM | 100 to 1000 nM | 
13 | Cc1ccc2nnc(Cc3ccc4ncc(-c5cnn(C6CN(S(C)(=O)=O)C6)c5)cc4c3)n2n1 [compound 182] | < 100 nM | 100 to 1000 nM | 

Further lines, with some results ahead:

Row | IC50 [1] | EC50 (GTL16; Table 2) | SMILES | other results
14 | < 100 nM | < 100 nM | Cc1ccc2nnc(Cc3ccc4ncc(-c5cnn(C)c5)cc4c3)n2n1 [compound 124, 3-(1-Methyl-1H-pyrazol-4-yl)-6-(6-methyl-[1,2,4]triazolo[4,3-b]pyridazin-3-ylmethyl)-quinoline] | decrease of mean tumor volume compared to vehicle-treated group (GTL16 tumors; 1 mg/kg PO Q12H for 14.5 consecutive days, p=0.0079): 32%; decrease of mean tumor volume compared to vehicle-treated group (GTL16 tumors; 3 mg/kg PO Q12H for 14.5 consecutive days, p<0.0001): 55%; decrease of mean tumor volume compared to vehicle-treated group (GTL16 tumors; 10 mg/kg PO Q12H for 14.5 consecutive days, p<0.0001): 72%; decrease of mean tumor volume compared to vehicle-treated group (GTL16 tumors; 30 mg/kg PO Q12H for 14.5 consecutive days, p<0.0001): 79%
15 | < 100 nM | < 100 nM | CN(C)c1ccc2nnc(Cc3ccc4ncc(-c5cnn(C)c5)cc4c3)n2n1 [compound 159, Dimethyl-{3-[3-(1-methyl-1H-pyrazol-4-yl)-quinolin-6-ylmethyl]-[1,2,4]triazolo[4,3-b]pyridazin-6-yl}-amine] | 
16 | < 100 nM | < 100 nM | CNc1ccc2nnc(Cc3ccc4ncc(-c5cnn(C)c5)cc4c3)n2n1 [compound 160] | 
17 | < 100 nM | < 100 nM | Cn1cc(-c2cnc3ccc(Cc4nnc5ccc(N)nn45)cc3c2)cn1 [compound 161] | 
18 | < 100 nM | < 100 nM | CCn1cc(-c2cnc3ccc(Cc4nnc5ccc(C)nn45)cc3c2)cn1 [compound 162] | 
19 | < 100 nM | < 100 nM | CCc1ccc2nnc(Cc3cc4cc(-c5cnn(C)c5)cnc4cc3F)n2n1 [compound 165] | 
20 | < 100 nM | < 100 nM | CCc1ccc2nnc(Cc3c(F)cc4ncc(-c5cnn(C)c5)cc4c3F)n2n1 [compound 166, 6-(6-Ethyl-[1,2,4]triazolo[4,3-b]pyridazin-3-ylmethyl)-5,7-difluoro-3-(1-methyl-1H-pyrazol-4-yl)-quinoline] | 
21 | < 100 nM | 10000 to 50000 nM | Cn1cc(-c2cnc3cc(F)c(Cc4nnc5cccnn45)cc3c2)cn1 [compound 167] | 
22 | < 100 nM | 100 to 1000 nM | Cn1cc(-c2cnc3cc(F)c(Cc4nnc5cccnn45)c(F)c3c2)cn1 [compound 174] | 
23 | < 100 nM | 100 to 1000 nM | Cc1ccc2nnc(Cc3c[nH]c4ncc(-c5cnn(C)c5)cc34)n2n1 [compound 177, 6-Methyl-3-[5-(1-methyl-1H-pyrazol-4-yl)-1H-pyrrolo[2,3-b]pyridine-3-ylmethyl]-[1,2,4]triazolo[4,3-b]pyridazine] | 
24 | < 100 nM | < 100 nM | Cn1cc(-c2cnc3ccc(Cc4nnc5nccnn45)cc3c2)cn1 [compound 179, 3-(1-Methyl-1H-pyrazol-4-yl)-6-[1,2,4]triazolo[4,3-b][1,2,4]triazin-3-ylmethyl-quinoline] | 

From patent US8071581B2, “Triazolopyridazine protein kinase modulators” (SGX Pharmaceuticals, Inc., priority 2006, dated 2011)
